Results reported in US8268789B2, “PAR-2 antagonists” (Kowa Company, Ltd., priority 2004, dated 2012).
Like-named read-outs stand apart in the source and are kept apart here.

Biological target: T1, PAR-2 (Homo sapiens, UniProt P55085)
T1 construct: intracellular Ca^2+ level change by PAR-2 agonist in human keratinocytes expressing PAR-2; host or cells: primary human keratinocytes, passage 3 to 5
T1 sequence (P55085 26-397): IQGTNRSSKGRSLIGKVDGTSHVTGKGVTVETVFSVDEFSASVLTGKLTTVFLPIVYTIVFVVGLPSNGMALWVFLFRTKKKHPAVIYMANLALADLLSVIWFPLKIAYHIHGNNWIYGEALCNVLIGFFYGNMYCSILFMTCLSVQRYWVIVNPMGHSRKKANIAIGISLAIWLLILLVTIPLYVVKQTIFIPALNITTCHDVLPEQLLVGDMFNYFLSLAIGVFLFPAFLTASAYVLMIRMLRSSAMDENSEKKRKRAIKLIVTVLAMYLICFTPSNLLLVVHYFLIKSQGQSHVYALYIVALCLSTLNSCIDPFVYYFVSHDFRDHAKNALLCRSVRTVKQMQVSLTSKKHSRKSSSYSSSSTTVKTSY
Assay: Assay of intracellular Ca2+ level in human keratinocytes stimulated with PAR-2 agonist peptide
Format: cell-based
Conditions: for inhibition at 10 µg/mL: read-out: Inhibition Rate (%) (Means ± Standard Error, n = 3)
Procedure: The keratinocytes were subjected to passage culture with trypsin/EDTA, and the cells whose passage number was 3 to 5 were used in the experiment.
Flex Station Calcium assay kit 2, which is a fluorescent reagent kit for calcium assay, was purchased from Molecular Devices and used in reagent preparation according to an accompanying protocol. Probenecid, Calcium ionophore (A23187) was purchased from Sigma. The human keratinocytes were seeded at a density of 40,000 cells/well to a 96-well black-well clear-bottom plate (Corning) and cultured for 24 hours until the cells became subconfluent. After washing once with KBM, 80 μl KBM was added to each well. Subsequently, a fluorescent dye solution containing an equal volume of Probenecid at a final concentration of 2 mM (HBSS solution, pH 7.4) was added to each well and incubated at 37° C. for 1 hour. Thereafter, the plate was left for 15 minutes at room temperature and assayed at room temperature (25° C.). The test chemical and the stimulants were prepared by diluting KBM having 10-fold concentration of a final concentration respectively which were then added in a volume of 20 μL respectively for assay. Measurement was carried out with a fluorescent plate reader FlexStation (Molecular Devices) compatible with a 96-well plate equipped with an injector. The measurement through the bottom was carried out for 180 seconds at 2-second intervals at an excitation wavelength of 475 nm and at a measurement wavelength of 525 nm. The chemical was added 17 seconds after the measurement was initiated.

[1] = compound final concentration 10 μg/mL, PAR-2 agonist SLIGKV 10 μM, cultured human keratinocytes, (1-AUCantagonist/AUCcontrol)×100 of time-fluorescence intensity curve

SMILES	inhibition at 10 µg/mL [1]	PAR-2 inhibitory action (inhibition of the agonist-induced increase in intracellular Ca2+ level), in words (compound final concentration 10 μg/mL, SLIGKV 10 μM, human keratinocytes, FIG. 1)	inhibition at 10 µg/mL
NCC[C@H](NC(=O)CNC(=O)Nc1ccc2c(c1)c(CN1CCCC1)cn2Cc1c(Cl)cccc1Cl)C(=O)N[C@@H](Cc1ccccc1)C(=O)NCc1ccccc1 [Example 20, [[N-[1-(2,6-dichlorophenyl)methyl]-3-(1-pyrrolidinylmethyl)-1H-indol-5-yl]aminocarbonyl]-glycine-L-α,γ-diaminobutyrate-L-phenylalanine-N-benzylamide]	33.6 ± 16.8%	–	–
CC(C)n1ccc2cc(NC(=O)NCC(=O)N[C@@H](CCN)C(=O)N[C@@H](Cc3ccccc3)C(=O)NCc3ccccc3)ccc21 [Example 24, [[N-isopropyl-1H-indol-5-yl]aminocarbonyl]-glycine-L-α,γ-diaminobutyrate-L-phenylalanine-N-benzylamide]	15.1 ± 10.5%	–	–
NCCCC[C@H](NC(=O)CNC(=O)Nc1ccc2c(c1)c(CN1CCCC1)cn2Cc1c(Cl)cccc1Cl)C(=O)N[C@@H](Cc1ccccc1)C(=O)NC(c1ccccc1)c1ccccc1 [Example 10, [[N-[1-(2,6-dichlorophenyl)methyl]-3-(1-pyrrolidinylmethyl)-1H-indol-5-yl]aminocarbonyl]-glycine-L-lysine-L-phenylalanine-N-benzhydrylamide]	–	inhibition was recognized	58.4 ± 13%

The next lines start with results.

inhibition at 10 µg/mL [1]	SMILES	PAR-2 inhibitory action (inhibition of the agonist-induced increase in intracellular Ca2+ level), in words (compound final concentration 10 μg/mL, SLIGKV 10 μM, human keratinocytes, FIG. 1)	inhibition at 10 µg/mL
52.2 ± 1.8%	CN1CCN(Cc2cn(Cc3c(Cl)cccc3Cl)c3ccc(NC(=O)NCC(=O)N[C@@H](CCCCN)C(=O)N[C@@H](Cc4ccccc4)C(=O)NC(c4ccccc4)c4ccccc4)cc23)CC1 [Example 12, [[N-[1-(2,6-dichlorophenyl)methyl]-3-[1-(4-methylpiperazinyl)methyl]-1H-indol-5-yl]aminocarbonyl]-glycine-L-lysine-L-phenylalanine-N-benzhydrylamide]	–	–
14.2 ± 10%	NCCCC[C@H](NC(=O)CNC(=O)Nc1ccc2c(c1)c(CN1CCCC1)cn2Cc1c(Cl)cccc1Cl)C(=O)N[C@@H](Cc1ccccc1)C(=O)NCc1ccccc1 [Example 21, [[N-[1-(2,6-dichlorophenyl)methyl]-3-(1-pyrrolidinylmethyl)-1H-indol-5-yl]aminocarbonyl]-glycine-L-lysine-L-phenylalanine-N-benzylamide]	–	–
32 ± 2.3%	NCC[C@H](NC(=O)CNC(=O)Nc1ccc2c(c1)c(CN1CCCC1)cn2Cc1c(Cl)cccc1Cl)C(=O)N[C@@H](Cc1ccccc1)C(=O)NC(c1ccccc1)c1ccccc1 [Example 11, [[N-[1-(2,6-dichlorophenyl)methyl]-3-(1-pyrrolidinylmethyl)-1H-indol-5-yl]aminocarbonyl]-glycine-L-α,γ-diaminobutyrate-L-phenylalanine-N-benzhydrylamide]	–	–
